Measured values reported in the supplement of paper PMC4862054.

How the values were obtained:
Assay in all cases: normalised viability (% of control), CellTiter-Blue; higher = more viable cells (about 100 = DMSO control)
Conditions in all cases: incubation time: 72 h
[1] = tested on: HCC1143
How it was run: (§1)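 Compound dissolved in 5 µl medium was pre-loaded into 384-well plates, and breast cancer cell lines in 20 µl suspension were seeded on top and incubated 72 h. After adding 2.5 µl CellTiter-Blue reagent for 2 h at 37 °C, fluorescence was read at 560/590 nm. Plates were normalised to vehicle (100) and a positive kill control (0), with Z'-factor quality control. Each value is normalised viability at a single listed concentration from the series.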

[2] = tested on: MFM-223
How it was run: as §1

[3] = tested on: MDA-MB-231
How it was run: as §1

[4] = tested on: BT-549
How it was run: as §1

[5] = tested on: SK-BR-3
How it was run: as §1

[6] = tested on: HDQ-P1
How it was run: as §1

[7] = tested on: MDA-MB-453
How it was run: as §1

[8] = tested on: DU-4475
How it was run: as §1

[9] = tested on: MDA-MB-468
How it was run: as §1

[10] = tested on: HCC1937
How it was run: as §1

[11] = tested on: CAL-85-1
How it was run: as §1

[12] = tested on: CAL-120
How it was run: as §1

[13] = tested on: HCC1599
How it was run: as §1

[14] = tested on: CAL-51
How it was run: as §1

[15] = tested on: Hs578T
How it was run: as §1

[16] = tested on: BT-474
How it was run: as §1

[17] = tested on: CAL-148
How it was run: as §1

[18] = tested on: MDA-MB-436
How it was run: as §1

COCC1(CO)C(=O)C2CCN1CC2 (stereo unspecified) [Prima-1 Met]
normalised viability [%]
Conditions	3 nM	10 nM	30 nM	100 nM	1000 nM	10000 nM
[1]	–	82.3	–	–	73.2	75.2
[2]	–	103	–	–	91.3	111
[3]	–	95.4	–	–	92.7	88.7
[4]	–	105	–	–	87.8	109
[5]	–	96.1	–	–	101	90.8
[6]	91.3	–	81.2	74.4	–	–
[7]	95.4	–	107	98	–	–
[8]	109	–	88.4	122	–	–
[9]	–	104	–	–	115	104
[10]	–	97.8	–	–	73.8	75.4
[11]	91.3	–	78.1	103	–	–
[12]	–	85	–	–	99.8	102
[13]	–	93.4	–	–	120	106
[14]	93.7	–	93.2	96.4	–	–
[15]	–	110	–	–	106	88.9
[16]	–	109	–	–	98.5	40.4
[17]	93.3	–	93	89.2	–	–
[18]	–	86.9	–	–	81.9	104

O=P1(N(CCCl)CCCl)NCCCO1 (stereo unspecified) [Cyclophosphamide]
normalised viability [%]
Conditions	12 nM	40 nM	120 nM	400 nM	4000 nM	40000 nM
[1]	–	84.1	–	–	93.6	87.3
[2]	–	92.1	–	–	98.9	98.5
[3]	–	101	–	–	96.9	96.9
[4]	–	94.3	–	–	94.9	95.2
[5]	–	105	–	–	102	110
[6]	119	–	109	104	–	–
[7]	105	–	105	111	–	–
[8]	110	–	90.9	113	–	–
[9]	–	102	–	–	100	106
[10]	–	98.3	–	–	111	98.5
[11]	98.8	–	89.9	97.5	–	–
[12]	–	97.1	–	–	95.7	83.8
[13]	–	89.4	–	–	78	91.5
[14]	111	–	99	111	–	–
[15]	–	107	–	–	108	112
[16]	–	121	–	–	119	127
[17]	100	–	102	109	–	–
[18]	–	108	–	–	83.7	83.9

COC(=O)c1ccc2c(c1)NC(=O)/C2=C(\Nc1ccc(N(C)C(=O)CN2CCN(C)CC2)cc1)c1ccccc1 [BIBF 1120]
normalised viability [%]
Conditions	3 nM	10 nM	30 nM	100 nM	1000 nM	10000 nM
[1]	–	91	–	–	103	56.7
[2]	–	99.5	–	–	57	36.6
[3]	–	97.6	–	–	120	2.46
[4]	–	105	–	–	111	16.4
[5]	–	101	–	–	91.8	42.8
[6]	124	–	117	124	–	–
[7]	112	–	101	104	–	–
[8]	94.6	–	100	91	–	–
[9]	–	108	–	–	112	17.6
[10]	–	144	–	–	130	84
[11]	97.1	–	98.3	99.6	–	–
[12]	–	82.6	–	–	75.5	29.7
[13]	–	90.9	–	–	95.9	65.1
[14]	104	–	96.3	100	–	–
[15]	–	102	–	–	111	34
[16]	–	127	–	–	92.5	58.6
[17]	93.5	–	99	97.7	–	–
[18]	–	120	–	–	122	43.8

NC(=O)c1ccc(I)c([N+](=O)[O-])c1 [Iniparib]
normalised viability [%]
Conditions	3 nM	10 nM	30 nM	100 nM	1000 nM	10000 nM
[1]	–	93.6	–	–	102	91.3
[2]	–	93.9	–	–	99	95.4
[3]	–	88.1	–	–	89.6	111
[4]	–	104	–	–	112	116
[5]	–	89.7	–	–	104	91.5
[6]	99.3	–	104	111	–	–
[7]	91.7	–	94.7	99.9	–	–
[8]	84.1	–	73.9	98.8	–	–
[9]	–	97.9	–	–	107	91.6
[10]	–	86	–	–	97.4	97.6
[11]	91.5	–	83.8	89.5	–	–
[12]	–	87.3	–	–	98.6	72.7
[13]	–	88.3	–	–	88.3	89.8
[14]	92.6	–	92.9	96.4	–	–
[15]	–	115	–	–	108	109
[16]	–	95.2	–	–	106	96.6
[17]	85.6	–	92.8	90.2	–	–
[18]	–	104	–	–	116	109
